Measured values from the supplement of paper PMC10307832.

Experiments:
Test in all cases: relative viability (nuclei count vs DMSO), 5 days (fraction); higher = more cells survive
Sorafenib = compound: CNC(=O)c1cc(Oc2ccc(NC(=O)Nc3ccc(Cl)c(C(F)(F)F)c3)cc2)ccn1 [Sorafenib]
Outline: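 Hoechst staining, done together with fixation and permeabilisation, marked nuclei for 4× imaging and MetaXpress counting. This followed 5 days without medium change after lung cancer cell lines, kept overnight at 37 °C in 1536-well plates, were pinned with five library-drug doses (not always all listed) spaced by √10 on vehicle-anchored plates. Viability is the ratio of treated-well to vehicle-well nuclei, expressed as a median across plates. Plates passed only at control CV below 25% with at least one doubling.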

Sorafenib + Bortezomib = compound: CNC(=O)c1cc(Oc2ccc(NC(=O)Nc3ccc(Cl)c(C(F)(F)F)c3)cc2)ccn1 [Sorafenib] + CC(C)C[C@H](NC(=O)[C@H](Cc1ccccc1)NC(=O)c1cnccn1)B(O)O [Bortezomib] (partner 0.002 µM)
Outline: (§1)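 Five library-drug doses in √10 steps were combined with a fixed anchor-drug dose, or a single drug was given alone, by pin tool to lung cancer cell lines in 1536-well plates the day after seeding. Nuclei were stained and counted after 5 days. Relative viability is the nuclei count in treated wells over that in vehicle wells, taken as the median of duplicate plates.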

Sorafenib + Navitoclax = compound: CNC(=O)c1cc(Oc2ccc(NC(=O)Nc3ccc(Cl)c(C(F)(F)F)c3)cc2)ccn1 [Sorafenib] + CC1(C)CCC(c2ccc(Cl)cc2)=C(CN2CCN(c3ccc(C(=O)NS(=O)(=O)c4ccc(N[C@H](CCN5CCOCC5)CSc5ccccc5)c(S(=O)(=O)C(F)(F)F)c4)cc3)CC2)C1 [Navitoclax] (partner 0.5 µM)
Outline: as §1

Sorafenib + Foretinib = compound: CNC(=O)c1cc(Oc2ccc(NC(=O)Nc3ccc(Cl)c(C(F)(F)F)c3)cc2)ccn1 [Sorafenib] + COc1cc2c(Oc3ccc(NC(=O)C4(C(=O)Nc5ccc(F)cc5)CC4)cc3F)ccnc2cc1OCCCN1CCOCC1 [Foretinib] (partner 0.25 µM)
Outline: as §1

Sorafenib + Lapatinib = compound: CNC(=O)c1cc(Oc2ccc(NC(=O)Nc3ccc(Cl)c(C(F)(F)F)c3)cc2)ccn1 [Sorafenib] + CS(=O)(=O)CCNCc1ccc(-c2ccc3ncnc(Nc4ccc(OCc5cccc(F)c5)c(Cl)c4)c3c2)o1 [Lapatinib] (partner 2 µM)
Outline: as §1

Sorafenib + Pictilisib = compound: CNC(=O)c1cc(Oc2ccc(NC(=O)Nc3ccc(Cl)c(C(F)(F)F)c3)cc2)ccn1 [Sorafenib] + CS(=O)(=O)N1CCN(Cc2cc3nc(-c4cccc5[nH]ncc45)nc(N4CCOCC4)c3s2)CC1 [Pictilisib] (partner 1 µM)
Outline: as §1

Sorafenib + Crizotinib = compound: CNC(=O)c1cc(Oc2ccc(NC(=O)Nc3ccc(Cl)c(C(F)(F)F)c3)cc2)ccn1 [Sorafenib] + C[C@@H](Oc1cc(-c2cnn(C3CCNCC3)c2)cnc1N)c1c(Cl)ccc(F)c1Cl [Crizotinib] (partner 1 µM)
Outline: as §1

Sorafenib + Linsitinib = compound: CNC(=O)c1cc(Oc2ccc(NC(=O)Nc3ccc(Cl)c(C(F)(F)F)c3)cc2)ccn1 [Sorafenib] + C[C@]1(O)C[C@@H](c2nc(-c3ccc4ccc(-c5ccccc5)nc4c3)c3c(N)nccn32)C1 [Linsitinib] (partner 1 µM)
Outline: as §1

Sorafenib + Alpelisib = compound: CNC(=O)c1cc(Oc2ccc(NC(=O)Nc3ccc(Cl)c(C(F)(F)F)c3)cc2)ccn1 [Sorafenib] + Cc1nc(NC(=O)N2CCC[C@H]2C(N)=O)sc1-c1ccnc(C(C)(C)C(F)(F)F)c1 [Alpelisib] (partner 2 µM)
Outline: as §1

Sorafenib + Olaparib = compound: CNC(=O)c1cc(Oc2ccc(NC(=O)Nc3ccc(Cl)c(C(F)(F)F)c3)cc2)ccn1 [Sorafenib] + O=C(c1cc(Cc2n[nH]c(=O)c3ccccc23)ccc1F)N1CCN(C(=O)C2CC2)CC1 [Olaparib] (partner 8 µM)
Outline: as §1

Cell Line: EBC-1
- relative viability (Sorafenib; 0.08 µM): 1.05
- relative viability (Sorafenib; 0.253 µM): 0.904
- relative viability (Sorafenib; 2.53 µM): 0.929
- relative viability (Sorafenib; 8 µM): 0.812
- relative viability (Sorafenib + Bortezomib; first compound 0.08 µM): 0.575
- relative viability (Sorafenib + Bortezomib; first compound 0.253 µM): 0.481
- relative viability (Sorafenib + Bortezomib; first compound 2.53 µM): 0.521
- relative viability (Sorafenib + Bortezomib; first compound 8 µM): 0.405
- relative viability (Sorafenib + Navitoclax; first compound 0.08 µM): 0.568
- relative viability (Sorafenib + Navitoclax; first compound 2.53 µM): 0.42
- relative viability (Sorafenib + Navitoclax; first compound 8 µM): 0.451
- relative viability (Sorafenib + Foretinib; first compound 0.08 µM): 0.092
- relative viability (Sorafenib + Foretinib; first compound 0.253 µM): 0.1
- relative viability (Sorafenib + Foretinib; first compound 2.53 µM): 0.11
- relative viability (Sorafenib + Foretinib; first compound 8 µM): 0.114
- relative viability (Sorafenib + Lapatinib; first compound 0.08 µM): 0.203
- relative viability (Sorafenib + Lapatinib; first compound 0.253 µM): 0.219
- relative viability (Sorafenib + Lapatinib; first compound 2.53 µM): 0.226
- relative viability (Sorafenib + Lapatinib; first compound 8 µM): 0.208
- relative viability (Sorafenib + Pictilisib; first compound 0.08 µM): 0.371
- relative viability (Sorafenib + Pictilisib; first compound 0.253 µM): 0.419
- relative viability (Sorafenib + Pictilisib; first compound 2.53 µM): 0.355
- relative viability (Sorafenib + Pictilisib; first compound 8 µM): 0.287
- relative viability (Sorafenib + Crizotinib; first compound 0.08 µM): 0.189
- relative viability (Sorafenib + Crizotinib; first compound 0.253 µM): 0.176
- relative viability (Sorafenib + Crizotinib; first compound 2.53 µM): 0.202
- relative viability (Sorafenib + Crizotinib; first compound 8 µM): 0.203
- relative viability (Sorafenib + Linsitinib; first compound 0.253 µM): 0.732
- relative viability (Sorafenib + Linsitinib; first compound 2.53 µM): 0.931
- relative viability (Sorafenib + Linsitinib; first compound 8 µM): 0.625
- relative viability (Sorafenib + Alpelisib; first compound 0.08 µM): 0.875
- relative viability (Sorafenib + Alpelisib; first compound 0.253 µM): 0.769
- relative viability (Sorafenib + Alpelisib; first compound 2.53 µM): 0.89
- relative viability (Sorafenib + Alpelisib; first compound 8 µM): 0.623
- relative viability (Sorafenib + Olaparib; first compound 0.08 µM): 0.717
- relative viability (Sorafenib + Olaparib; first compound 0.253 µM): 0.543
- relative viability (Sorafenib + Olaparib; first compound 2.53 µM): 0.594
- relative viability (Sorafenib + Olaparib; first compound 8 µM): 0.557
